Test results: ChEMBL document CHEMBL6114969, “Ultra-short lipopeptides containing d-amino acid exhibiting excellent stability and antibacterial activity against gram-positive bacteria” (Eur J Med Chem, 2025)
Active and inactive are the calls of the source.

Assays:
[1] = test system: Staphylococcus aureus; assay: Inhibition of imipenem-induced drug resistance in Staphylococcus aureus ATCC 25923 at sub-MIC measured upto 15 passages; type: functional, organism-based
[2] = test system: Staphylococcus aureus; assay: Inhibition of gentamicin-induced drug resistance in Staphylococcus aureus ATCC 25923 at sub-MIC measured upto 15 passages; type: functional, organism-based
[3] = test system: Staphylococcus aureus; assay: (§1) Antibacterial activity against methicillin-resistant Staphylococcus aureus ATCC 33591 infected in Balb/c mouse model of skin wound infection assessed as reduction in inflammatory cell infiltration in skin at 10 mg/kg, ip administered thrice at 1, 24 and 48 hrs post-infection measured after 14 days by H and E staining based analysis; type: functional, organism-based; settings: time 14.0 day
[4] = test system: Staphylococcus aureus; assay: Induction of cell membrane damage in methicillin-resistant Staphylococcus aureus ATCC 33591 assessed as nucleic acid leakage at 2 to 8 times MIC measured upto 360 mins by absorbance based assay; type: functional, organism-based
[5] = Stability in mouse serum assessed as half life measured upto 96 hrs by RP-HPLC analysis; type: ADME, cell-free
[6] = test system: Staphylococcus aureus; assay: Induction of morphological changes in methicillin-resistant Staphylococcus aureus ATCC 33591 assessed as irregular atrophy at 2 times MIC incubated for 2 hrs by SEM analysis; type: functional, organism-based
[7] = test system: Staphylococcus aureus; assay: as §1, with “IL-1beta activity” for “inflammatory cell infiltration”, “IHC” for “H and E staining based”; type: functional, organism-based; settings: time 14.0 day
[8] = Toxicity in Balb/c mouse assessed as cell swelling in lung at 80 mg/kg, ip measured after 7 days by H and E staining based analysis; type: organism-based; settings: in vivo, 168 h, time 7 day
[9] = test system: Staphylococcus aureus; assay: Antibacterial activity against methicillin-resistant Staphylococcus aureus ATCC 33591 incubated for 18 to 24 hrs in presence of 1 mg/ml of trypsin by broth microdilution method; type: functional; settings: time 18-24 hrs
[10] = test system: Staphylococcus aureus; assay: Synergistic antibacterial activity against methicillin-resistant Staphylococcus aureus ATCC 33591 assessed as fractional inhibitory concentration index upto 2 times MIC incubated for 18 to 24 hrs in presence of polymyxin B by checkerboard assay; type: functional; settings: time 18-24 hrs
[11] = test system: Staphylococcus aureus; assay: (§2) Antibacterial activity against methicillin-resistant Staphylococcus aureus ATCC 33591 infected in Balb/c mouse model of pneumonia infection assessed as reduction in IL-1beta activity in lung at 10 mg/kg, ip administered thrice at 4, 8 and 12 hrs post-infection measured after 24 hrs post-infection by IHC analysis; type: functional, organism-based; settings: time 20.0 hrs
[12] = test system: Staphylococcus aureus; assay: Antibacterial activity against methicillin-resistant Staphylococcus aureus ATCC 33591 infected in Balb/c mouse model of acute systemic infection assessed as reduction in hypoplasia of white pulp in spleen at 10 mg/kg, ip measured after 5 days by H and E staining based analysis; type: functional, organism-based; settings: time 5.0 day
[13] = test system: Staphylococcus aureus; assay: Antibacterial activity against methicillin-resistant Staphylococcus aureus ATCC 33591 incubated for 18 to 24 hrs in presence of 2 mg/ml of trypsin by broth microdilution method; type: functional; settings: time 18-24 hrs
[14] = test system: Staphylococcus aureus; assay: as §2, with “bacterial load” for “IL-1beta activity”, “in presence of polymyxin B” for “by IHC analysis”; type: functional, organism-based; settings: time 20.0 hrs
[15] = test system: Staphylococcus aureus; assay: Antibacterial activity against methicillin-resistant Staphylococcus aureus ATCC 33591 assessed as bacterial growth inhibition at 0.5 to 1 times MIC incubated for 18 to 24 hrs by time-kill assay; type: functional, organism-based; settings: time 18-24 hrs
[16] = test system: Staphylococcus aureus; assay: Destruction of cell membrane in methicillin-resistant Staphylococcus aureus ATCC 33591 at 2 to 8 times MIC by absorbance based assay; type: functional, organism-based; settings: time <= 360.0 min
[17] = test system: Staphylococcus aureus; assay: Antibacterial activity against methicillin-resistant Staphylococcus aureus ATCC 33591 infected in Balb/c mouse model of pneumonia infection assessed as reduction in bacterial load in lung at 10 mg/kg, ip administered thrice at 4, 8 and 12 hrs post-infection measured after 24 hrs post-infection; type: functional, organism-based; settings: time 20.0 hrs
[18] = Toxicity in Balb/c mouse assessed as change in kidney co-efficient at 20 to 80 mg/kg, ip measured after 7 days; type: organism-based; settings: in vivo, 168 h, dose 20-80 mg/kg, time 7 day
[19] = test system: Staphylococcus aureus; assay: Antibacterial activity against methicillin-resistant Staphylococcus aureus ATCC 33591 infected in Balb/c mouse model of skin wound infection assessed as crusted back wound at 10 mg/kg, ip administered thrice at 1, 24 and 48 hrs post-infection measured after 9 days in presence of polymyxin B relative to control; type: functional; settings: time 9 day
[20] = test system: Staphylococcus aureus; assay: Destruction of cell membrane in methicillin-resistant Staphylococcus aureus ATCC 33591 assessed as increase in red fluorescence intensity incubated for 2 hrs by PI staining based analysis; type: functional, organism-based
[21] = test system: Staphylococcus aureus; assay: Induction of morphological changes in methicillin-resistant Staphylococcus aureus ATCC 33591 assessed as content leakage at 4 times MIC incubated for 2 hrs by SEM analysis; type: functional, organism-based
[22] = Toxicity in Balb/c mouse assessed as change in serum CREA level at 80 mg/kg, ip measured after 7 days; type: organism-based; settings: in vivo, 168 h, time 7 day
[23] = test system: Staphylococcus aureus; assay: Induction of drug resistance in Staphylococcus aureus ATCC 25923 at sub-MIC measured after 15 passages; type: functional, organism-based
[24] = Retention time of compound by RP-HPLC analysis; type: physicochemical
[25] = Toxicity in Balb/c mouse assessed as change in lung co-efficient at 20 to 80 mg/kg, ip measured after 7 days; type: organism-based; settings: in vivo, 168 h, dose 20-80 mg/kg, time 7 day
[26] = test system: Staphylococcus aureus; assay: Antibacterial activity against methicillin-resistant Staphylococcus aureus ATCC 33591 infected in Balb/c mouse model of acute systemic infection assessed as reduction in bleeding in heart at 10 mg/kg, ip measured after 5 days by H and E staining based analysis; type: functional, organism-based; settings: time 5.0 day
[27] = test system: Staphylococcus aureus; assay: Antibacterial activity against methicillin-resistant Staphylococcus aureus ATCC 33591 incubated for 18 to 24 hrs in presence of 0.5 mg/ml of pepsin by broth microdilution method; type: functional; settings: time 18-24 hrs
[28] = test system: Staphylococcus aureus; assay: Antibacterial activity against methicillin-resistant Staphylococcus aureus ATCC 33591 infected in Balb/c mouse model of acute systemic infection assessed as reduction in bacterial count in liver at 10 mg/kg, ip measured after 5 days; type: functional, organism-based; settings: time 5.0 day
[29] = test system: Staphylococcus aureus; assay: Inhibition of gentamicin-induced drug resistance in methicillin-resistant Staphylococcus aureus ATCC 33591 at sub-MIC measured upto 15 passages; type: functional, organism-based
[30] = test system: Staphylococcus aureus; assay: Antibacterial activity against methicillin-resistant Staphylococcus aureus ATCC 33591 infected in Balb/c mouse model of acute systemic infection assessed as reduction in tubule contraction in kidney at 10 mg/kg, ip measured after 5 days by H and E staining based analysis; type: functional, organism-based; settings: time 5.0 day
[31] = test system: Staphylococcus aureus; assay: as §2, with “inflammatory cell infiltration” for “IL-1beta activity”, “H and E staining based” for “IHC”; type: functional, organism-based; settings: time 20.0 hrs
[32] = test system: Staphylococcus aureus; assay: Antibacterial activity against methicillin-resistant Staphylococcus aureus ATCC 33591 incubated for 18 to 24 hrs in presence of 0.5 mg/ml of chymotrypsin by broth microdilution method; type: functional; settings: time 18-24 hrs

CCCCCCCCCCCC(=O)N[C@H](CCCNC(=N)N)C(=O)N[C@H](CCCNC(=N)N)C(=O)N[C@H](Cc1c[nH]c2ccccc12)C(=O)O
Toxic: Activity [8] | Activity [18] | Activity [22]
active: inhibition [1] | inhibition [2] | Activity [3] | Activity [4] | Activity [6] | Activity [7] | Activity [11] | Activity [12] | Activity [14] | inhibition [15] | Activity [16] Time-dependent-effect | Activity [17] | Activity [20] Dose-dependent-effect | Activity [21] | Activity [26] | Activity [28] | inhibition [29] | Activity [30] | Activity [31]
Non-toxic: Activity [25]
4 µM: MIC [9] | MIC [13] | MIC [32]
> 48 h: half-life [5]
0.125: fractional inhibitory concentration index (FICI) [10]
inactive: Activity [23]
100%: Activity [19]
8 µM: MIC [27]
17.826 min: Retention_time [24]
